# Experiments:
# [1] = biological target: T1, Adrenergic receptor alpha-1 (Rattus norvegicus, UniProt P15823+P23944+P43140); assay: Antagonistic activity against postsynaptic Alpha-1 adrenergic receptor in isolated rat vas deferens using (-)-phenylephrine as agonist; assay type: functional, tissue-based
# T1 sequence (P15823 whole entry): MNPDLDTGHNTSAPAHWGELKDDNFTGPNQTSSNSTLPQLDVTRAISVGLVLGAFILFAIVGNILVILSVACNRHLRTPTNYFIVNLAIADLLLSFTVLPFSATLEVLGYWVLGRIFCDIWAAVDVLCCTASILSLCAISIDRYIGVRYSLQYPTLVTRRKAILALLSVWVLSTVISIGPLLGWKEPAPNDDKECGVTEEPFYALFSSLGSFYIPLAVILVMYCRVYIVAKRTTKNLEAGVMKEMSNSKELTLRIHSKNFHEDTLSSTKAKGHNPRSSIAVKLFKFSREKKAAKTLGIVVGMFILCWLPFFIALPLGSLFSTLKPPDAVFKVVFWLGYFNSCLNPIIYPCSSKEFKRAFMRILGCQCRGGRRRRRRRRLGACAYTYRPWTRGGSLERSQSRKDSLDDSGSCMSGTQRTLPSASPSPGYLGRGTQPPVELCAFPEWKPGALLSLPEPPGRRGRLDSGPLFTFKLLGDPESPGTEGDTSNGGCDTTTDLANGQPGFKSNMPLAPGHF
# T1 sequence (P23944 whole entry): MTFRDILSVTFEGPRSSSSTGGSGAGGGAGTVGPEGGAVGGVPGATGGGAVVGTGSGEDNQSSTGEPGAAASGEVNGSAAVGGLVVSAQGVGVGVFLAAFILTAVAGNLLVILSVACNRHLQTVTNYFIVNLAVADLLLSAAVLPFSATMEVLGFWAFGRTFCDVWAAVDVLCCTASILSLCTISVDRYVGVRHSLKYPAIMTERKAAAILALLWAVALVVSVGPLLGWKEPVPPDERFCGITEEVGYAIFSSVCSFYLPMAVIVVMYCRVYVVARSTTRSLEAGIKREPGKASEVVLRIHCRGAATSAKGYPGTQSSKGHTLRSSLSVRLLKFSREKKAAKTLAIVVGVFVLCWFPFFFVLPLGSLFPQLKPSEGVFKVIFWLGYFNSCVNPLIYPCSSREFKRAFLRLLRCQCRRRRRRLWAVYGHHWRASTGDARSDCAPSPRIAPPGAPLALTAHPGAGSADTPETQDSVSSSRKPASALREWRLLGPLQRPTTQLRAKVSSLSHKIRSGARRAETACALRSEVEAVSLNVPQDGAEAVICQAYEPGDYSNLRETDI
# T1 sequence (P43140 whole entry): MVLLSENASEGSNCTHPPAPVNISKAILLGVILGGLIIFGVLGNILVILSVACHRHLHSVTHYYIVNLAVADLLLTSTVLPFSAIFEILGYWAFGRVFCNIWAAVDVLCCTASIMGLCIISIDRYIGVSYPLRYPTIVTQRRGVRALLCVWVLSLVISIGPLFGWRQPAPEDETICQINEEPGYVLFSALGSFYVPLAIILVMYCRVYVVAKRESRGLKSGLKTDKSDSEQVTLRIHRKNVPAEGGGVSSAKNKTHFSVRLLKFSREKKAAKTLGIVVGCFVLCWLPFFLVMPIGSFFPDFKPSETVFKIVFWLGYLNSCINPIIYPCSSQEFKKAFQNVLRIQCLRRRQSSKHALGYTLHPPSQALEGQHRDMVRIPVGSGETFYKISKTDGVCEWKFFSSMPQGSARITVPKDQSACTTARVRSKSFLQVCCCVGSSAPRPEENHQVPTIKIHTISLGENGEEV
# [2] = biological target: T2, Adrenergic receptor alpha-2 (Rattus norvegicus, UniProt P22086+P19328+P22909); assay: Antagonistic activity against presynaptic alpha-2 adrenergic receptor in isolated rat vas deferens using xylazine as agonist; assay type: functional, tissue-based
# T2 sequence (P22086 whole entry): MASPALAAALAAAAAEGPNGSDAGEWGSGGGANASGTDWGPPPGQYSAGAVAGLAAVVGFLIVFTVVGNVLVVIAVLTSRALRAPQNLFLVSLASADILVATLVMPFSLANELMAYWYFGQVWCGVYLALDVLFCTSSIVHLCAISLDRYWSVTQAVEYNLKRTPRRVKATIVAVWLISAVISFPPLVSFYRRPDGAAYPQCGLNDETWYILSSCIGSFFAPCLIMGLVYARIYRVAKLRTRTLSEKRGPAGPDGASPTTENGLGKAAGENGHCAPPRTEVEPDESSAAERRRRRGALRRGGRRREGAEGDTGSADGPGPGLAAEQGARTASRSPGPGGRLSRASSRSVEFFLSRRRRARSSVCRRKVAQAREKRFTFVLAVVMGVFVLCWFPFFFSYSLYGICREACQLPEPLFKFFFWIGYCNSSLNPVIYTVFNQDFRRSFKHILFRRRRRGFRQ
# T2 sequence (P19328 whole entry): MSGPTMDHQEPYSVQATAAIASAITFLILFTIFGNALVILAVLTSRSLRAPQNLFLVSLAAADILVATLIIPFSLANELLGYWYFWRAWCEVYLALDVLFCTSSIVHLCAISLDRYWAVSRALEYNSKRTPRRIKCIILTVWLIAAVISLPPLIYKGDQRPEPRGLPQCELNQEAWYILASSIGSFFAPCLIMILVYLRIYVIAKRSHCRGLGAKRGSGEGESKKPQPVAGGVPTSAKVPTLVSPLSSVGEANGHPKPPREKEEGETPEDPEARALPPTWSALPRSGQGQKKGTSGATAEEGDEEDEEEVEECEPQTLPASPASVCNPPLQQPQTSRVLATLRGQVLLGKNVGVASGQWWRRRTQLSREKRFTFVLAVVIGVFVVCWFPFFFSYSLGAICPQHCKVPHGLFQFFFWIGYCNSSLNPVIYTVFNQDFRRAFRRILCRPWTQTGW
# T2 sequence (P22909 whole entry): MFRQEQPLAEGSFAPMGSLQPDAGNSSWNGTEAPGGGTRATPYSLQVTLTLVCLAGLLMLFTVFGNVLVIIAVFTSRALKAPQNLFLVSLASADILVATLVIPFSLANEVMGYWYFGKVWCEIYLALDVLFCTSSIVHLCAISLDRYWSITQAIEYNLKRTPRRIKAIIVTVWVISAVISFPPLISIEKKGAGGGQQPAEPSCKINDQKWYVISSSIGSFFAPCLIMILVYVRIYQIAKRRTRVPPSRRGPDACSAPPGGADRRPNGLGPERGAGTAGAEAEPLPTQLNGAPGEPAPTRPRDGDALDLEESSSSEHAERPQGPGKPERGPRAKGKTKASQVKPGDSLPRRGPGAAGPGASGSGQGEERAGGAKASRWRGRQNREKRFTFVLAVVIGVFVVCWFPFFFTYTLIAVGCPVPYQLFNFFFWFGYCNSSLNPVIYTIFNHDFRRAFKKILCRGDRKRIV
# [3] = biological target: Adrenergic receptor alpha-2 (Cavia porcellus); assay: Antagonistic activity against adrenergic alpha-2 receptor in longitudinal muscle strip of the guinea pig ileum using l-norepinephrine as agonist
Structure (SMILES),pA2 [1],pA2 [2],pA2 [3]
OC[C@@H]1[C@H]2C[C@H]3c4cc5c(cc4CCN3C[C@@H]2CC[C@H]1O)OCO5,5.25,,
Oc1cc2c(cc1O)[C@@H]1C[C@@H]3C[C@H](O)CC[C@@H]3CN1CC2,< 4,5.74,
COc1cc2c(cc1OC)[C@@H]1C[C@@H]3C[C@H](OC(C)=O)CC[C@@H]3CN1CC2,4.54,6.61,6.19
CC(=O)O[C@@H]1CC[C@@H]2CN3CCc4cc5c(cc4[C@@H]3C[C@@H]2C1)OCO5,4.55,7.3,8.21
CCOc1cc2c(cc1OCC)[C@@H]1C[C@@H]3C[C@H](O)CCC3CN1CC2 (stereo partly specified),< 4,6.41,
COc1cc2c(cc1OC)[C@@H]1C[C@@H]3C[C@H](O)CC[C@@H]3CN1CC2,< 4,6.31,< 4
CCOC(=O)[C@H]1[C@H]2C[C@H]3c4cc5c(cc4CCN3C[C@H]2CC[C@H]1O)OCO5,5.51,,

# More lines, now with the values ahead:
pA2 [1],pA2 [2],pA2 [3],Structure (SMILES)
4.8,,,COC(=O)[C@@H]1C[C@@H]2CN3CCc4cc5c(cc4[C@@H]3C[C@@H]2C[C@@H]1O)OCO5
5.98,,,COC(=O)[C@H]1C[C@H]2CN3CCc4cc5c(cc4[C@@H]3C[C@@H]2C[C@@H]1O)OCO5
< 4,,,OC[C@@H]1C[C@@H]2CN3CCc4cc5c(cc4[C@@H]3C[C@@H]2C[C@@H]1O)OCO5
< 4,6.1,6.67,N#C[C@@H]1C[C@@H]2CN3CCc4cc5c(cc4[C@@H]3C[C@@H]2C[C@@H]1O)OCO5

# — ChEMBL document CHEMBL1123932, “Berbanes: a new class of selective alpha 2-adrenoceptor antagonists” (J Med Chem, 1987)
